The record followed here is patent publication US7196110B2, “N-substituted tricyclic 3-aminopyrazoles as inhibitors for the treatment of cell proliferative disorders” (Janssen Phamaceutica N.V., priority 2002, dated 2007).

Like-named read-outs stand apart in the source and are kept apart here.

The assay addresses T1, PDGF-receptor beta enzyme comprising the tyrosine kinase domain (Homo sapiens, UniProt P09619).
T1 construct: from amino acid 545 to 1106 of GenBank Access NO: AAA36427
Briefly: Inhibition of PDGF-receptor kinase activity (cell-free, PLC1 peptide, 33P Flashplate). Type of assay: biochemical. To be noted: for inhibition at 10 µM: compound at 10 uM, read-out: Percent Inhibition @ 10 uM. The method in brief: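 Recombinant kinase domain (aa 545–1106) phosphorylated a biotinylated PLC1 peptide with 5 μM ATP plus 33P-γ-ATP, in Tris pH 8, MgCl2, Na3VO4 and 1 mM DTT, for 60 min at 30 °C. Retained 33P was counted after washing. IC50 is the concentration halving activity versus no-inhibitor reactions.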

[1] abbreviates: read-out: IC50 (μM) on PDGF-R kinase activity.
[2] abbreviates: PDGF-R kinase activity, read-out: IC50.

T1 sequence (P09619 545-1106): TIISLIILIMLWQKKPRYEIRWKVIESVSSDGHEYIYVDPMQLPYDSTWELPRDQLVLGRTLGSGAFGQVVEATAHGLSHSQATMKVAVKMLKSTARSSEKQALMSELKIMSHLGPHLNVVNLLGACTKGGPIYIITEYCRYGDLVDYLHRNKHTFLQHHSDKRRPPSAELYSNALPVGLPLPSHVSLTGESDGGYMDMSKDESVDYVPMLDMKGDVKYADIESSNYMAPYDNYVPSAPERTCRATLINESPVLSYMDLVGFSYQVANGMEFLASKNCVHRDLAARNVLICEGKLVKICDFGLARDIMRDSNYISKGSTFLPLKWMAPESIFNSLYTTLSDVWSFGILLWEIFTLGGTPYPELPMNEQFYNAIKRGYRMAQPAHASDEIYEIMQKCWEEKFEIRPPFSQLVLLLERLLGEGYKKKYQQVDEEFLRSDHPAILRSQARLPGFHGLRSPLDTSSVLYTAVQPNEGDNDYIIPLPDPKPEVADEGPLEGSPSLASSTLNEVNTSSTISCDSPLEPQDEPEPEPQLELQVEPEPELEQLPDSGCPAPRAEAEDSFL

What is called inhibition is the change of the read-out against control, counted positive when it falls. By IC50 is commonly meant the concentration needed to halve the response being measured. For the compound `COc1cc2c(cc1OC)-c1n[nH]c(Nc3cccc(C(=O)NCCOCCOCCOCCNC(=O)CCCCC4SCC5NC(=O)NC54)c3)c1C2` (stereo not shown) [Compound 601, 3-(6,7-Dimethoxy-2,4-dihydro-indeno[1,2-c]pyrazol-3-ylamino)-N-{2-[2-(2-{2-[5-(2-oxo-hexahydro-thieno[3,4-d]imidazol-6-yl)-pentanoylamino]-ethoxy}-ethoxy)-ethoxy]-ethyl}-benzamide], the inhibition at 10 µM (PDGF-R kinase activity) worked out at 89%. Under setting [1], the IC50 was 2.29 µM. As for `Cc1cccc2c1Cc1c-2n[nH]c1Nc1cc(F)ccc1F` [Compound 103, (2,5-Difluoro-phenyl)-(5-methyl-2,4-dihydro-indeno[1,2-c]pyrazol-3-yl)-amine], the inhibition at 10 µM (PDGF-R kinase activity) worked out at 43%. The IC50 under setting [2] stood at 4.1 µM.

As to `COc1cc2c(cc1OC)-c1n[nH]c(Nc3ccc4c(c3)CCC4)c1C2` [Compound 79, (6,7-Dimethoxy-2,4-dihydro-indeno[1,2-c]pyrazol-3-yl)-indan-5-yl-amine], the inhibition at 10 µM (PDGF-R kinase activity) turned out to be 56%. Also, the IC50 under setting [2] came out at 3.71 µM. Taken in the same sequence, the figures for `c1ccc(Nc2[nH]nc3c2CCc2sccc2-3)cc1` [Compound 52, (4,5-Dihydro-2H-6-thia-1,2-diaza-as-indacen-3-yl)-phenyl-amine] were 71% and 2.4 µM. Taken in the same sequence, the figures for `CCC1c2cc(OC)c(OC)cc2-c2n[nH]c(Nc3cccc(Br)c3)c21` (single isomer, unassigned) [Compound 555, *R-(3-Bromo-phenyl)-(6,7-dimethoxy-4-ethyl-2,4-dihydro-indeno[1,2-c]pyrazol-3-yl)-amine] were 97.5% and 0.0209 µM. Taken in the same sequence, the figures for `Fc1cccc(Nc2[nH]nc3c2Cc2cc4c(cc2-3)OCO4)c1` [Compound 96, (2,9-Dihydro-5,7-dioxa-2,3-diaza-cyclopenta[a]-s-indacen-1-yl)-(3-fluoro-phenyl)-amine] were 93% and 0.076 µM. With `COCCOC(=O)n1nc(Nc2cccc(F)c2)c2c1-c1cc(OC)c(OC)cc1C2` [Compound 438, 3-(3-Fluoro-phenylamino)-6,7-dimethoxy-4H-indeno[1,2-c]pyrazole-1-carboxylic acid 2-methoxy-ethyl ester], the inhibition at 10 µM (PDGF-R kinase activity) turned out to be 77.5%. The IC50 under setting [2] stood at 0.992 µM. As for `COc1cc2c(cc1OC)-c1n[nH]c(NCc3ccc(Cl)c(Cl)c3)c1C2` [Compound 219, (3,4-Dichloro-benzyl)-(6,7-dimethoxy-2,4-dihydro-indeno[1,2-c]pyrazol-3-yl)-amine], the inhibition at 10 µM (PDGF-R kinase activity) amounted to 39%. Same read-out and setting: the value for `CCOc1cc2c(cc1OCC)-c1n[nH]c(NCc3ccccc3OC(F)(F)F)c1C2` [Compound 301, (6,7-Diethoxy-2,4-dihydro-indeno[1,2-c]pyrazol-3-yl)-(2-trifluoromethoxy-benzyl)-amine] was 72%. Consider `COCCCOc1cc2c(cc1OCCCOC)-c1n[nH]c(Nc3cccc(Cl)c3)c1C2` [Compound 285, [6,7-Bis-(3-methoxy-propoxy)-2,4-dihydroindeno[1,2-c]pyrazol-3-yl]-(3-chloro-phenyl)-amine], for which the inhibition at 10 µM (PDGF-R kinase activity) was found to be 18.5%. Besides, the IC50 under setting [2] was determined as 0.00278 µM. The like results for `COc1cccc(Nc2[nH]nc3c2Cc2c(OCCCN(C)C)cccc2-3)c1` [Compound 74, [5-(3-Dimethylamino-propoxy)-2,4-dihydro-indeno[1,2-c]pyrazol-3-yl]-(3-methoxy-phenyl)-amine] were, in that order, 102% and 0.424 µM. In the case of `COc1cc2c(cc1OC)-c1c(c(Nc3cccc(F)c3)nn1C(=O)OCCOCc1ccccc1)C2` [Compound 470, 3-(3-Fluoro-phenylamino)-6,7-dimethoxy-4H-indeno[1,2-c]pyrazole-1-carboxylic acid 2-benzyloxy-ethyl ester], under “PDGF-R kinase activity”, the inhibition at 10 µM is 96%. The concentration for half-maximal inhibition (IC50) under setting [2] is 0.197 µM. On to `COc1cc2c(cc1OC)C(C(C)C)c1c-2n[nH]c1Nc1cccc(Br)c1` (stereo not shown) [Compound 538, (3-Bromo-phenyl)-(4-isopropyl-6,7-dimethoxy-2,4-dihydro-indeno[1,2-c]pyrazol-3-yl)-amine], for which, under “PDGF-R kinase activity”, the inhibition at 10 µM was 65%. For the compound `CC1c2ccccc2-c2n[nH]c(Nc3ccc(OC(F)(F)F)cc3)c21` (stereo not shown) [Compound 113, (4-Methyl-2,4-dihydro-indeno[1,2-c]pyrazol-3-yl)-(4-trifluoromethoxy-phenyl)-amine], the inhibition at 10 µM (PDGF-R kinase activity) came out at 60%. The IC50 under setting [2] came out at 2.45 µM. The like results for `COc1cc2c(cc1OC)-c1c(c(Nc3cccc(F)c3)nn1C(=O)Oc1ccc(F)cc1)C2` [Compound 500, 3-(3-Fluoro-phenylamino)-6,7-dimethoxy-4H-indeno[1,2-c]pyrazole-1-carboxylic acid 4-fluoro-phenyl ester] were, in that order, 80.5% and 0.492 µM. Taken in the same sequence, the figures for `CN(C)CCCOc1ccc2c(c1)Cc1c-2n[nH]c1Nc1cccc(C(F)(F)F)c1` [Compound 165, [6-(3-Dimethylamino-propoxy)-2,4-dihydro-indeno[1,2-c]pyrazol-3-yl]-(3-trifluoromethyl-phenyl)-amine] were 92.5% and 0.101 µM.

As to `COc1cc2c(cc1OC)-c1n[nH]c(Nc3ccc4c(c3)OCO4)c1C2` [Compound 62, Benzo[1,3]dioxol-5-yl-(6,7-dimethoxy-2,4-dihydro-indeno[1,2-c]pyrazol-3-yl)-amine], for the setting “PDGF-R kinase activity”, the inhibition at 10 µM turned out to be 85%. Besides, the IC50 under setting [2] stood at 0.313 µM.

For `COc1cc2c(cc1OC)-c1n[nH]c(Nc3ccc(C(F)(F)F)cc3)c1C2` [Compound 25, (6,7-Dimethoxy-2,4-dihydro-indeno[1,2-c]pyrazol-3-yl)-(4-trifluoromethyl-phenyl)-amine], the inhibition at 10 µM (PDGF-R kinase activity) was 62%. Also, the IC50 under setting [2] came out at 4.77 µM. Taken in the same sequence, the figures for `COc1cc2c(cc1OC)-c1n[nH]c(Nc3cccnc3Cl)c1C2` [Compound 377, (2-Chloro-pyrid-3-yl)-(6,7-dimethoxy-2,4-dihydro-indeno[1,2-c]pyrazol-3-yl)-amine] were 99% and 0.00857 µM. The like results for `COCCOC(=O)n1nc2c(c1Nc1cccc(F)c1)Cc1cc(OC)c(OC)cc1-2` [Compound 437, 3-(3-Fluoro-phenyl-amino)-6,7-dimethoxy-4H-indeno[1,2-c]pyrazole-2-carboxylic acid 2-methoxy-ethyl ester] were, in that order, 83.5% and 0.291 µM. Taken in the same sequence, the figures for `COc1cc2c(cc1OC)C(C)c1c-2n[nH]c1Nc1ccc(F)cc1` (stereo not shown) [Compound 248, (6,7-Dimethoxy-4-methyl-2,4-dihydro-indeno[1,2-c]pyrazol-3-yl)-(4-fluoro-phenyl)-amine] were 68% and 0.41 µM. For `COc1cc2c(cc1OC)-c1n[nH]c(NCc3ccccc3Br)c1C2` [Compound 575, (2-Bromo-benzyl)-(6,7-dimethoxy-2,4-dihydro-indeno[1,2-c]pyrazol-3-yl)-amine], the inhibition at 10 µM (PDGF-R kinase activity) stood at 99.5%. Moreover, the IC50 under setting [1] is 0.00213 µM. With `COC(=O)CCC(=O)n1nc(Nc2cccc(F)c2)c2c1-c1cc(OC)c(OC)cc1C2` [Compound 428, 4-[3-(3-Fluoro-phenylamino)-6,7-dimethoxy-4H-indeno[1,2-c]pyrazol-1-yl]-4-oxo-butyric acid methyl ester], for the setting “PDGF-R kinase activity”, the inhibition at 10 µM came out at 85.5%. Besides, the IC50 under setting [2] was found to be 0.432 µM.
